Values quoted from earlier work in US20180295833A1, “METHOD FOR SUPPRESSION OF OR PROTECTION FROM ISCHEMIA/REPERFUSION INJURY OF ORGANS FOR TRANSPLANTATION” (MiZ Company Limited, priority 2017, published 2018).

Conditions: normal temperature and normal pressure of 15° C. to 25° C. and 1 atm

saturation concentration of molecular hydrogen: 1.6 ppm
Compound: [HH] [molecular hydrogen]
